Measured values from patent US5679638A, “Method for treating a tumor with a chemotherapeutic agent” (Biopure Corporation, priority 1993, dated 1997).
“And” between values parts separate entries of the source, which are not always exact repeats. Equal values may be shown once. Where a name gives a salt, the structure may show the parent alone.

Assays:
[1] = tested on: Lewis lung carcinoma lung metastases; test: Lung metastases of Lewis lung carcinoma; assay type: in vivo, mouse (male C57BL); parameters: Lung Metastases: unit not given here
Description: (§1) The Lewis lung tumor was carried in male C57BL mice (Taconic Laboratories, Germantown, N.Y.). For the experiments, 2×10^6 tumor cells prepared from a brei of several stock tumors were implanted subctaneously into the legs of male mice aged 8-10 weeks. […] Animals bearing Lewis lung tumors were treated daily with intraperitoneal Mino (10 mg/kg), Diflun (15 mg/kg) or Sulin (15 mg/kg) on days 4-18 following tumor implantation. When the tumors had reached a volume of approximately 100 mm^3 (day 7 after tumor cell implantation), cytotoxic therapy was initiated.
Therapy consisted of treatment with an antitumor alkylating agent, an antitumor antimetabolite, a non-steroidal anti-inflammatory drug (NSAID) and/or UPHS. […] CTX therapy consisted of three successive 150 mg/kg CTX doses administered by intraperitoneal injections on days 7, 9 and 11. BCNU therapy consisted of three successive 15 mg/Kg BCNU doses administered by intraperitoneal injections on days 7, 9 and 11. Therapy with the antimetabolite 5-fluorouracil(5-FU) consisted of 4 successive 40 mg/kg 5-FU doses administered by intraperitoneal injections daily on days 7 to 11. The 5-FU was purchased from Sigma Chemical Co., St. Louis, Mo. Fourteen doses of 10 mg/kg of NSAID were administered daily by intraperitoneal injections on days 4 to 18. UPHS was injected into the tail vein in 8 ml/kg doses daily on days 7-11. […]

Lewis lung carcinoma = Lewis lung carcinoma growth delay; assay type: in vivo, mouse (male C57BL); conditions: for Lewis lung carcinoma growth delay, Mean Days: NSAID days 4-18
Description: as §1
Therapy consisted of treatment with an antitumor alkylating agent, an antitumor antimetabolite, a non-steroidal anti-inflammatory drug (NSAID) and/or UPHS. […] CTX therapy consisted of three successive 150 mg/kg CTX doses administered by intraperitoneal injections on days 7, 9 and 11. BCNU therapy consisted of three successive 15 mg/Kg BCNU doses administered by intraperitoneal injections on days 7, 9 and 11. Therapy with the antimetabolite 5-fluorouracil(5-FU) consisted of 4 successive 40 mg/kg 5-FU doses administered by intraperitoneal injections daily on days 7 to 11. The 5-FU was purchased from Sigma Chemical Co., St. Louis, Mo. Fourteen doses of 10 mg/kg of NSAID were administered daily by intraperitoneal injections on days 4 to 18. UPHS was injected into the tail vein in 8 ml/kg doses daily on days 7-11.
The progress of each tumor was measured thrice weekly until it had reached a volume of 500 mm^3. Tumor growth delay was calculated as the number of days required for each treated tumor to reach a volume of 500 mm^3 as compared with untreated control tumors. Each treatment group comprised six animals and the experiment was repeated three times.
On the twentieth day after the subcutaneous tumor implantation, the delay in Lewis Lung Carcinoma tumor growth was evaluated. Tumor growth delay data is presented as the mean value ±SE calculated for the treatment group as compared with the control group.

[2] = tested on: subcutaneous 9L gliosarcoma; test: Subcutaneous 9L gliosarcoma tumor growth delay; assay type: in vivo, rat (male Fischer 344)
Description: (§2) The 9L gliosarcoma (9L) cells were obtained as a gift of 9L/SF gliosarcoma cells from Dr. Dennis Dean, University of California, San Francisco. These cells were maintained in culture in .varies.-MEM (Grand Island Biological Co., Grand Island, N.Y.) and supplemented with 10% fetal bovine serum (Sterile Systems, Inc., Logan, Utah) and with antibiotics. The 9L cells (4×10^4) in 10 μL of media without serum were implanted intracranially in male Fischer 344 rats (Taconic Farms, Germantown, N.Y.) weighing 200-250 gm on day 0. Each rat was anesthetized with sodium pentobarbital. A midline scalp incision was made and a hole was bored through the skull with 23 gauge needle at a point 2 mm lateral to the midline. The cell suspension was injected into the right frontal lobe at a depth of 3 mm from the dural surface. The needle was removed and the hole filled with dental cement. The scalp was sealed with a surgical clip. Two days later 9L cells (2×10^6) were implanted subcutaneously into the flank of each animal. When the tumors were approximately 100 mm^3 in volume, 7 days after tumor cell implantation, 8 ml/kg of UPHS was injected via the tail vein. After injecting the UPHS, administration of chemotherapeutic agents was initiated. […] BCNU therapy consisted of three 15 mg/kg BCNU doses administered by intraperitoneal injection days 7, 9 and 11. CTX and ifosfamide (IFOS) therapy consisted of three 100 mg/kg CTX or IFOS doses administered by intraperitoneal injection on days 7, 9 and 11. For the BCNU, CTX and IFOS therapies, UPHS was intravenously administered prior to each chemotherapeutic agent injection on days 7, 9 and 11. The IFOS was purchased from the Dana-Farber Cancer Institute. Survival of animals was monitored daily. Animals that were moribund or unable to reach food or water were killed by CO2 inhalation.
The progress of each subcutaneous tumor was measured 3 times/week until it reached a volume of 500 mm^3. Tumor growth delay was calculated as the number of days for each individual tumor to reach 500 mm^3 compared with untreated controls. Each treatment group had 4 animals and the experiment was repeated twice. Days of tumor growth delay are the mean ±SE for the treatment group compared with the control.

[3] = tested on: intracranial 9L gliosarcoma; test: Life span of rats with intracranial 9L gliosarcoma; assay type: in vivo, rat (male Fischer 344)
Description: as §2
The effect of the treatments on the growth of the intracranial tumor was determined by the increase in life span of treated groups compared with the untreated controls. A percentage increase in life span of 25% or more is therapeutically significant.

[4] = WITH UPHS (8 ml/kg daily days 7-11), CDDP or PAM 10 mg/kg, CTX 3 x 150, BCNU 3 x 15, 5-FU 40 mg/kg
[5] = WITHOUT UPHS, CDDP or PAM 10 mg/kg day 7, CTX 3 x 150, BCNU 3 x 15 mg/kg days 7, 9, 11, 5-FU 40 mg/kg
[6] = relative statement among BCNU, CTX, CDDP, IFOS

Structure (SMILES)	Lung Metastases ([1]; WITH UPHS)	Lung Metastases (% Large) ([1]; WITH UPHS) [%]	Lung Metastases ([1]; WITHOUT UPHS)	Lung Metastases (% Large) ([1]; WITHOUT UPHS) [%]	Lewis lung carcinoma growth delay, Mean Days (Lewis lung carcinoma; [4]) [days]	Lewis lung carcinoma growth delay, Mean Days (Lewis lung carcinoma; [5]) [days]	Increase of growth delay by addition of UPHS (Lewis lung carcinoma; drug + UPHS vs drug)	Subcutaneous 9L Tumor Growth Delay, Mean Days ([2]; Table III, days to 500 mm^3 vs control (19.5 ± 0.5 days), CDDP 8 mg/kg day 7, BCNU 3 x 15, CTX or IFOS 3 x 100 mg/kg, UPHS 8 ml/kg) [days]	Increase in tumor growth delay by prior administration of UPHS ([2]; UPHS + drug vs drug alone) [fold]	Effectiveness against subcutaneous 9L tumors [2, 6]	% Increased from Control (life span) ([3]; Table II, vs untreated control)	Survival Days ([3]; Table II, control 26 ± 2.2 days, CDDP 8 mg/kg day 7, BCNU 3 x 15, CTX or IFOS 3 x 100 mg/kg days 7, 9, 11, UPHS 8 ml/kg)	Increase in life span with UPHS prior to the drug therapy ([3]; UPHS prior to drug, vs untreated control) [%]	Significance of increase in life span, drug alone ([3]; drug alone, 25% or more is therapeutically significant)	Increase in therapeutic response upon addition of UPHS ([3]; intracranial (life span) and subcutaneous (growth delay) 9L tumors)	Effectiveness against intracranial 9L tumors [3, 6]	Effect of addition of NSAIDs (with or without UPHS) to cytotoxic agents on growth delay (Lewis lung carcinoma; mouse, in vivo)
O=c1[nH]cc(F)c(=O)[nH]1 [5-FU, 5-fluorouracil]	15	40	21	52	6.3 ± 0.5	5.4 ± 0.4	also enhanced, to a lesser degree										
O=C(O)c1cc(-c2ccc(F)cc2F)ccc1O [Diflun, Diflunisal]	20	55	20	51	0.9 ± 0.3	0.3 ± 0.2											
O=P1(NCCCl)OCCCN1CCCl (centres unmarked) [IFOS, ifosfamide]								10.4 ± 0.9	1.4	very effective treatments for subcutaneously growing 9L tumors	19% and 38%	30.9 days and 35.9 days	38	did not reach significance	greatest increases in therapeutic response upon addition of UPHS	least effective treatments for intracranial 9L tumors	
CN(C)c1ccc(O)c2c1C[C@H]1C[C@H]3[C@H](N(C)C)C(O)=C(C(N)=O)C(=O)[C@@]3(O)C(O)=C1C2=O [Mino, minocycline hydrochloride]	20	65	20	50	1.0 ± 0.4	0.8 ± 0.3											
CC1=C(CC(=O)O)c2cc(F)ccc2/C1=C\c1ccc([S+](C)[O-])cc1 (centres unmarked) [Sulin, Sulindac]	21	57	19	55	0.5 ± 0.3	1.2 ± 0.4											providing the best NSAID results
